The test deals with BDF1 mice, P388 leukemia ip, median survival T/C. In words: NCI In Vivo Anticancer Drug Screen. Data for tumor model P388 Leukemia (intraperitoneal) in B6D2F1 (BDF1) mice. Particulars: endpoint: median survival time, higher = longer survival. Put shortly: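 Vehicle-dosed animals serve as the reference; survival of compound-dosed, tumour-implanted mice is divided by it.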
The mark [1] stands for this setting: dose: 50.0 mg/kg/injection, schedule: Q01DX009 (ip), vehicle: saline.
[2] abbreviates: dose: 100.0 mg/kg/injection, schedule: Q01DX009 (ip), vehicle: saline.
Where [3] appears, read: dose: 100.0 mg/kg/injection, schedule: Q04DX003 (ip), vehicle: saline.
The mark [4] stands for this setting: dose: 200.0 mg/kg/injection, schedule: Q01DX009 (ip), vehicle: saline.
[5] abbreviates: dose: 200.0 mg/kg/injection, schedule: Q04DX003 (ip), vehicle: saline.
[6] abbreviates: dose: 400.0 mg/kg/injection, schedule: Q01DX009 (ip), vehicle: saline.
Where [7] appears, read: dose: 400.0 mg/kg/injection, schedule: Q04DX003 (ip), vehicle: saline.
[8] abbreviates: dose: 100.0 mg/kg/injection, schedule: Q04DX003 (ip), vehicle: saline with Tween-80.
[9] abbreviates: dose: 200.0 mg/kg/injection, schedule: Q04DX003 (ip), vehicle: saline with Tween-80.
Setting [10] is: dose: 400.0 mg/kg/injection, schedule: Q04DX003 (ip), vehicle: saline with Tween-80.
Where [11] appears, read: dose: 50.0 mg/kg/injection, schedule: Q01DX009 (ip), vehicle: saline with Tween-80.
Setting [12] is: dose: 100.0 mg/kg/injection, schedule: Q01DX009 (ip), vehicle: saline with Tween-80.
[13] abbreviates: dose: 200.0 mg/kg/injection, schedule: Q01DX009 (ip), vehicle: saline with Tween-80.
Where [14] appears, read: dose: 400.0 mg/kg/injection, schedule: Q01DX009 (ip), vehicle: saline with Tween-80.

Inconclusive results and toxic doses are left out.

In the case of `Nc1cc2c(c[n+](Cc3ccccc3)c3ccccc23)c2ccccc12`, the T/C (dose: 3.13 mg/kg/injection, schedule: Q04DX003 (ip), vehicle: other) was 98 % of control.

For `N#C/C(=C\c1ccncc1)c1csc2ccccc12`, the T/C is 111 % of control (dose: 50.0 mg/kg/injection, schedule: Q01DX011 (ip), vehicle: Klucel (hydroxypropylcellulose) (HPC)); 107 % of control (dose: 100.0 mg/kg/injection, schedule: Q01DX011 (ip), vehicle: Klucel (hydroxypropylcellulose) (HPC)); 107 % of control (dose: 200.0 mg/kg/injection, schedule: Q01DX011 (ip), vehicle: Klucel (hydroxypropylcellulose) (HPC)); 89 % of control (dose: 400.0 mg/kg/injection, schedule: Q01DX011 (ip), vehicle: Klucel (hydroxypropylcellulose) (HPC)).

For the molecule `O=C(O)CCCC1CCC(=O)CC1`, the T/C is, setting by setting: under setting [1], 90 % of control; (dose: 100.0 mg/kg/injection, schedule: Q01DX001 (ip), vehicle: other) 95 % of control; under setting [2], 90 % of control; under setting [3], 104 % of control; (dose: 200.0 mg/kg/injection, schedule: Q01DX001 (ip), vehicle: other) 104 % of control; under setting [4], 110 % of control. Further, the T/C is 104 % of control under setting [5]; 120 % of control (dose: 400.0 mg/kg/injection, schedule: Q01DX001 (ip), vehicle: other); 110 % of control under setting [6]; 109 % of control under setting [7].

Consider `Cc1nc([N+](=O)[O-])cn1CC/C(N)=N/O`, for which the T/C under setting [8] is 108 % of control, the T/C under setting [9] is 105 % of control and the T/C under setting [10] is 115 % of control.

For `COc1cc2c3c(c1)C(O)CC[N+]3(C)CCC2` (stereo not drawn), the T/C is 100 % of control (dose: 12.5 mg/kg/injection, schedule: Q01DX009 (ip), vehicle: saline); 109 % of control (dose: 12.5 mg/kg/injection, schedule: Q04DX003 (ip), vehicle: saline); 110 % of control (dose: 25.0 mg/kg/injection, schedule: Q01DX009 (ip), vehicle: saline); 109 % of control (dose: 25.0 mg/kg/injection, schedule: Q04DX003 (ip), vehicle: saline); 100 % of control under setting [1]; 109 % of control (dose: 50.0 mg/kg/injection, schedule: Q04DX003 (ip), vehicle: saline).

As for `CS(=O)C/C(=C/CCCl)c1cccs1` (stereo not drawn), the T/C is, setting by setting: under setting [11], 105 % of control; under setting [12], 94 % of control; under setting [13], 105 % of control.

`CCCCCCCCCCCCCCCCCC[n+]1cccc(C2CCCN2C)c1` (stereo not drawn) (tested in a mixture with another compound): the T/C (dose: 25.0 mg/kg/injection, schedule: Q01DX009 (ip), vehicle: Klucel (hydroxypropylcellulose) (HPC)) was 119 % of control.

Consider `CC(O)C(O)C(O)C(/C=N\NC(N)=S)=N/NC(N)=S` (stereo not drawn), for which the T/C runs as follows: under setting [2], 92 % of control; under setting [4], 100 % of control; under setting [6], 88 % of control.

In the case of `CC1(C)CC(=O)C=C(OCCc2ccccc2)C1`, the T/C reads like this: under setting [12], 100 % of control; under setting [13], 109 % of control; under setting [14], 118 % of control.

As to `Cc1nn(C)c2ccc([N+](=O)[O-])cc12`, the T/C runs as follows: (dose: 100.0 mg/kg/injection, schedule: Q01DX009 (ip), vehicle: Klucel (hydroxypropylcellulose) (HPC)) 118 % of control; (dose: 200.0 mg/kg/injection, schedule: Q01DX009 (ip), vehicle: Klucel (hydroxypropylcellulose) (HPC)) 104 % of control; (dose: 400.0 mg/kg/injection, schedule: Q01DX009 (ip), vehicle: Klucel (hydroxypropylcellulose) (HPC)) 122 % of control.

Consider `CN1CC2([N+](=O)[O-])C=CCC([N+](=O)[O-])(C1)C2` (stereo not drawn), for which the T/C is, setting by setting: (dose: 25.0 mg/kg/injection, schedule: Q01DX009 (ip), vehicle: water) 90 % of control; (dose: 50.0 mg/kg/injection, schedule: Q01DX009 (ip), vehicle: water) 115 % of control; (dose: 100.0 mg/kg/injection, schedule: Q01DX009 (ip), vehicle: water) 108 % of control; (dose: 200.0 mg/kg/injection, schedule: Q01DX009 (ip), vehicle: water) 99 % of control.

In the case of `O=C(CCCCC(=O)N/N=C\c1ccccn1)N/N=C\c1ccccn1`, the T/C reads like this: under setting [3], 104 % of control; under setting [5], 100 % of control; under setting [7], 109 % of control.

`[Cl][Rh][Cl].[NH-]c1ccc(S(=O)(=O)Nc2ccccn2)cc1.[NH-]c1ccc(S(=O)(=O)Nc2ccccn2)cc1.[NH-]c1ccc(S(=O)(=O)Nc2ccccn2)cc1.[NH-]c1ccc(S(=O)(=O)Nc2ccccn2)cc1`: the T/C is 108 % of control under setting [8], 94 % of control under setting [9] and 91 % of control under setting [10].

Take `O=C(/C=C/c1ccc(OCc2ccccc2)cc1)c1ccc(Br)cc1`: the T/C was 91 % of control under setting [11], 86 % of control under setting [12] and 87 % of control under setting [13].

For the molecule `O=C(O)CP(=O)(O)O`, the T/C (dose: 250.0 mg/kg/injection, schedule: Q03HX024 (ip), vehicle: saline) was 120 % of control.

Consider `CSc1ncnc2c1ncn2C1OC(CO)C(O)C1O` (stereo not drawn), for which the T/C is 113 % of control (dose: 4.0 mg/kg/injection, schedule: Q01DX010 (ip), vehicle: saline); 122 % of control (dose: 8.0 mg/kg/injection, schedule: Q01DX010 (ip), vehicle: saline); 118 % of control (dose: 32.0 mg/kg/injection, schedule: Q01DX010 (ip), vehicle: saline).

As for `Cc1cccn2c(C)nnc12`, the T/C (dose: 25.0 mg/kg/injection, schedule: Q01DX009 (ip), vehicle: saline with Tween-80) is 110 % of control; the T/C under setting [11] was 101 % of control; the T/C under setting [12] is 99 % of control.

Take `CCCS(=O)(=O)N(CC(=O)O)Cc1ccccc1`: the T/C was 106 % of control (dose: 25.0 mg/kg/injection, schedule: Q04DX003 (ip), vehicle: other); 104 % of control (dose: 50.0 mg/kg/injection, schedule: Q04DX003 (ip), vehicle: other); 100 % of control (dose: 100.0 mg/kg/injection, schedule: Q04DX003 (ip), vehicle: other); 106 % of control (dose: 200.0 mg/kg/injection, schedule: Q04DX003 (ip), vehicle: other); 106 % of control (dose: 400.0 mg/kg/injection, schedule: Q04DX003 (ip), vehicle: other).

On to `CN1CSC(=S)N(Cc2ccccc2)C1`, for which the T/C runs as follows: under setting [11], 90 % of control; under setting [12], 90 % of control.

In the case of `N=P(N[P+](N)(c1ccccc1)c1ccccc1)(c1ccccc1)c1ccccc1`, the T/C is 117 % of control (dose: 6.25 mg/kg/injection, schedule: Q01DX001 (ip), vehicle: saline); 100 % of control (dose: 8.2 mg/kg/injection, schedule: Q01DX001 (ip), vehicle: saline); 100 % of control (dose: 12.5 mg/kg/injection, schedule: Q01DX001 (ip), vehicle: saline); 104 % of control (dose: 18.0 mg/kg/injection, schedule: Q01DX001 (ip), vehicle: saline); 116 % of control (dose: 25.0 mg/kg/injection, schedule: Q01DX001 (ip), vehicle: saline).

Take `COc1ccc(/C=C/C(=O)c2ccc3c(c2)OCO3)cc1OC`: the T/C is 109 % of control (dose: 44.0 mg/kg/injection, schedule: Q01DX009 (ip), vehicle: saline with Tween-80); 109 % of control (dose: 44.0 mg/kg/injection, schedule: Q04DX003 (ip), vehicle: saline with Tween-80); 118 % of control (dose: 66.0 mg/kg/injection, schedule: Q01DX009 (ip), vehicle: saline with Tween-80); 109 % of control (dose: 66.0 mg/kg/injection, schedule: Q04DX003 (ip), vehicle: saline with Tween-80); 123 % of control (dose: 88.0 mg/kg/injection, schedule: Q01DX009 (ip), vehicle: saline with Tween-80); 109 % of control under setting [8]. Also, the T/C (dose: 150.0 mg/kg/injection, schedule: Q04DX003 (ip), vehicle: saline with Tween-80) is 109 % of control; the T/C under setting [13] is 157 % of control; the T/C under setting [14] was 194 % of control.

These data come from PubChem BioAssay AID328 (DTP/NCI, 2004).
